Data published in paper PMC10339703 (Clinical and Translational Science, 2023).

Test system: healthy subjects
Test: Safety and tolerability
Type: in vivo, human
[1] = MAD 25 mg tablet b.i.d. 14 days
[2] = MAD 50 mg tablet b.i.d. 14 days
[3] = MAD 100 mg tablet b.i.d. 14 days
[4] = MAD 200 mg tablet b.i.d. 14 days

## O[C@H]1CCCN[C@@H]1CCCn1cnc2c(Cl)c(Cl)ccc21 [Bersiporocin]
[1]
  ADRs, number of events: 25
  Abdominal discomfort (ADR), number of events: 1
  Abdominal discomfort (ADR), subjects n (%): 1 (16.7)
  Abdominal distension (ADR), number of events: 3
  Abdominal distension (ADR), subjects n (%): 2 (33.3)
  Abdominal pain (ADR), number of events: 5
  Abdominal pain (ADR), subjects n (%): 2 (33.3)
  Abdominal pain upper (ADR), subjects n (%): 0
  Acne (ADR), subjects n (%): 0
  Alanine aminotransferase increased (ADR), subjects n (%): 0
  Altered visual depth perception (ADR), subjects n (%): 0
  Balance disorder (ADR), subjects n (%): 0
  Bowel movement irregularity (ADR), number of events: 1
  Bowel movement irregularity (ADR), subjects n (%): 1 (16.7)
  Cold sweat (ADR), number of events: 1
  Cold sweat (ADR), subjects n (%): 1 (16.7)
  Constipation (ADR), subjects n (%): 0
  Decreased appetite (ADR), subjects n (%): 0
  Diarrhea (ADR), number of events: 3
  Diarrhea (ADR), subjects n (%): 2 (33.3)
  Dizziness (ADR), subjects n (%): 0
  Dry mouth (ADR), subjects n (%): 0
  Dysgeusia (ADR), subjects n (%): 0
  Eructation (ADR), subjects n (%): 0
  Esophageal pain (ADR), subjects n (%): 0
  Euphoric mood (ADR), subjects n (%): 0
  Feces discolored (ADR), subjects n (%): 0
  Feces soft (ADR), subjects n (%): 0
  Feeling hot (ADR), number of events: 1
  Feeling hot (ADR), subjects n (%): 1 (16.7)
  Flatulence (ADR), subjects n (%): 0
  Gastroesophageal reflux disease (ADR), number of events: 2
  Gastroesophageal reflux disease (ADR), subjects n (%): 1 (16.7)
  Headache (ADR), subjects n (%): 0
  Hypoesthesia (ADR), subjects n (%): 0
  Impaired healing (ADR), subjects n (%): 0
  Malaise (ADR), number of events: 1
  Malaise (ADR), subjects n (%): 1 (16.7)
  Myalgia (ADR), subjects n (%): 0
  Nausea (ADR), number of events: 4
  Nausea (ADR), subjects n (%): 1 (16.7)
  Neutropenia (ADR), subjects n (%): 0
  Oropharyngeal pain (ADR), subjects n (%): 0
  Papule (ADR), subjects n (%): 0
  Pollakiuria (ADR), subjects n (%): 0
  Presyncope (ADR), subjects n (%): 0
  Proctalgia (ADR), subjects n (%): 0
  Salivary hypersecretion (ADR), number of events: 3
  Salivary hypersecretion (ADR), subjects n (%): 2 (33.3)
  Skin irritation (ADR), subjects n (%): 0
  Somnolence (ADR), subjects n (%): 0
  Subjects with ADRs, n (%): 4 (66.7)
  Transaminases increased (ADR), subjects n (%): 0
  Tremor (ADR), subjects n (%): 0
  Vomiting (ADR), subjects n (%): 0
[2]
  ADRs, number of events: 35
  Abdominal discomfort (ADR), subjects n (%): 0
  Abdominal distension (ADR), number of events: 1
  Abdominal distension (ADR), subjects n (%): 1 (16.7)
  Abdominal pain (ADR), number of events: 1
  Abdominal pain (ADR), subjects n (%): 1 (16.7)
  Abdominal pain upper (ADR), subjects n (%): 0
  Acne (ADR), subjects n (%): 0
  Alanine aminotransferase increased (ADR), number of events: 1
  Alanine aminotransferase increased (ADR), subjects n (%): 1 (16.7)
  Altered visual depth perception (ADR), number of events: 1
  Altered visual depth perception (ADR), subjects n (%): 1 (16.7)
  Balance disorder (ADR), subjects n (%): 0
  Bowel movement irregularity (ADR), subjects n (%): 0
  Cold sweat (ADR), subjects n (%): 0
  Constipation (ADR), number of events: 1
  Constipation (ADR), subjects n (%): 1 (16.7)
  Decreased appetite (ADR), subjects n (%): 0
  Diarrhea (ADR), number of events: 2
  Diarrhea (ADR), subjects n (%): 2 (33.3)
  Dizziness (ADR), number of events: 1
  Dizziness (ADR), subjects n (%): 1 (16.7)
  Dry mouth (ADR), number of events: 1
  Dry mouth (ADR), subjects n (%): 1 (16.7)
  Dysgeusia (ADR), number of events: 2
  Dysgeusia (ADR), subjects n (%): 2 (33.3)
  Eructation (ADR), subjects n (%): 0
  Esophageal pain (ADR), subjects n (%): 0
  Euphoric mood (ADR), number of events: 1
  Euphoric mood (ADR), subjects n (%): 1 (16.7)
  Feces discolored (ADR), number of events: 1
  Feces discolored (ADR), subjects n (%): 1 (16.7)
  Feces soft (ADR), subjects n (%): 0
  Feeling hot (ADR), subjects n (%): 0
  Flatulence (ADR), subjects n (%): 0
  Gastroesophageal reflux disease (ADR), number of events: 1
  Gastroesophageal reflux disease (ADR), subjects n (%): 1 (16.7)
  Headache (ADR), number of events: 5
  Headache (ADR), subjects n (%): 3 (50.0)
  Hypoesthesia (ADR), number of events: 1
  Hypoesthesia (ADR), subjects n (%): 1 (16.7)
  Impaired healing (ADR), subjects n (%): 0
  Malaise (ADR), subjects n (%): 0
  Myalgia (ADR), number of events: 2
  Myalgia (ADR), subjects n (%): 2 (33.3)
  Nausea (ADR), number of events: 6
  Nausea (ADR), subjects n (%): 4 (66.7)
  Neutropenia (ADR), subjects n (%): 0
  Oropharyngeal pain (ADR), number of events: 1
  Oropharyngeal pain (ADR), subjects n (%): 1 (16.7)
  Papule (ADR), subjects n (%): 0
  Pollakiuria (ADR), number of events: 1
  Pollakiuria (ADR), subjects n (%): 1 (16.7)
  Presyncope (ADR), subjects n (%): 0
  Proctalgia (ADR), subjects n (%): 0
  Salivary hypersecretion (ADR), subjects n (%): 0
  Skin irritation (ADR), subjects n (%): 0
  Somnolence (ADR), subjects n (%): 0
  Subjects with ADRs, n (%): 6 (100)
  Transaminases increased (ADR), subjects n (%): 0
  Tremor (ADR), subjects n (%): 0
  Vomiting (ADR), number of events: 5
  Vomiting (ADR), subjects n (%): 3 (50.0)
[3]
  ADRs, number of events: 32
  Abdominal discomfort (ADR), subjects n (%): 0
  Abdominal distension (ADR), number of events: 3
  Abdominal distension (ADR), subjects n (%): 2 (33.3)
  Abdominal pain (ADR), number of events: 8
  Abdominal pain (ADR), subjects n (%): 3 (50.0)
  Abdominal pain upper (ADR), number of events: 2
  Abdominal pain upper (ADR), subjects n (%): 2 (33.3)
  Acne (ADR), subjects n (%): 0
  Alanine aminotransferase increased (ADR), subjects n (%): 0
  Altered visual depth perception (ADR), subjects n (%): 0
  Balance disorder (ADR), subjects n (%): 0
  Bowel movement irregularity (ADR), subjects n (%): 0
  Cold sweat (ADR), subjects n (%): 0
  Constipation (ADR), number of events: 2
  Constipation (ADR), subjects n (%): 2 (33.3)
  Decreased appetite (ADR), subjects n (%): 0
  Diarrhea (ADR), number of events: 4
  Diarrhea (ADR), subjects n (%): 3 (50.0)
  Dizziness (ADR), subjects n (%): 0
  Dry mouth (ADR), subjects n (%): 0
  Dysgeusia (ADR), subjects n (%): 0
  Eructation (ADR), subjects n (%): 0
  Esophageal pain (ADR), number of events: 1
  Esophageal pain (ADR), subjects n (%): 1 (16.7)
  Euphoric mood (ADR), subjects n (%): 0
  Feces discolored (ADR), subjects n (%): 0
  Feces soft (ADR), number of events: 2
  Feces soft (ADR), subjects n (%): 2 (33.3)
  Feeling hot (ADR), subjects n (%): 0
  Flatulence (ADR), subjects n (%): 0
  Gastroesophageal reflux disease (ADR), subjects n (%): 0
  Headache (ADR), subjects n (%): 0
  Hypoesthesia (ADR), subjects n (%): 0
  Impaired healing (ADR), number of events: 1
  Impaired healing (ADR), subjects n (%): 1 (16.7)
  Malaise (ADR), subjects n (%): 0
  Myalgia (ADR), subjects n (%): 0
  Nausea (ADR), number of events: 4
  Nausea (ADR), subjects n (%): 3 (50.0)
  Neutropenia (ADR), subjects n (%): 0
  Oropharyngeal pain (ADR), subjects n (%): 0
  Papule (ADR), number of events: 1
  Papule (ADR), subjects n (%): 1 (16.7)
  Pollakiuria (ADR), subjects n (%): 0
  Presyncope (ADR), number of events: 1
  Presyncope (ADR), subjects n (%): 1 (16.7)
  Proctalgia (ADR), subjects n (%): 0
  Salivary hypersecretion (ADR), subjects n (%): 0
  Skin irritation (ADR), number of events: 1
  Skin irritation (ADR), subjects n (%): 1 (16.7)
  Somnolence (ADR), subjects n (%): 0
  Subjects with ADRs, n (%): 6 (100)
  Transaminases increased (ADR), subjects n (%): 0
  Tremor (ADR), subjects n (%): 0
  Vomiting (ADR), number of events: 2
  Vomiting (ADR), subjects n (%): 1 (16.7)
[4]
  ADRs, number of events: 58
  Abdominal discomfort (ADR), subjects n (%): 0
  Abdominal distension (ADR), number of events: 5
  Abdominal distension (ADR), subjects n (%): 3 (50.0)
  Abdominal pain (ADR), number of events: 14
  Abdominal pain (ADR), subjects n (%): 3 (50.0)
  Abdominal pain upper (ADR), subjects n (%): 0
  Acne (ADR), number of events: 1
  Acne (ADR), subjects n (%): 1 (16.7)
  Alanine aminotransferase increased (ADR), subjects n (%): 0
  Altered visual depth perception (ADR), subjects n (%): 0
  Balance disorder (ADR), number of events: 1
  Balance disorder (ADR), subjects n (%): 1 (16.7)
  Bowel movement irregularity (ADR), subjects n (%): 0
  Cold sweat (ADR), subjects n (%): 0
  Constipation (ADR), subjects n (%): 0
  Decreased appetite (ADR), subjects n (%): 0
  Diarrhea (ADR), number of events: 7
  Diarrhea (ADR), subjects n (%): 4 (66.7)
  Dizziness (ADR), number of events: 2
  Dizziness (ADR), subjects n (%): 2 (33.3)
  Dry mouth (ADR), subjects n (%): 0
  Dysgeusia (ADR), subjects n (%): 0
  Eructation (ADR), number of events: 1
  Eructation (ADR), subjects n (%): 1 (16.7)
  Esophageal pain (ADR), subjects n (%): 0
  Euphoric mood (ADR), subjects n (%): 0
  Feces discolored (ADR), subjects n (%): 0
  Feces soft (ADR), subjects n (%): 0
  Feeling hot (ADR), subjects n (%): 0
  Flatulence (ADR), number of events: 1
  Flatulence (ADR), subjects n (%): 1 (16.7)
  Gastroesophageal reflux disease (ADR), subjects n (%): 0
  Headache (ADR), number of events: 7
  Headache (ADR), subjects n (%): 3 (50.0)
  Hypoesthesia (ADR), subjects n (%): 0
  Impaired healing (ADR), subjects n (%): 0
  Malaise (ADR), subjects n (%): 0
  Myalgia (ADR), subjects n (%): 0
  Nausea (ADR), number of events: 12
  Nausea (ADR), subjects n (%): 5 (83.3)
  Neutropenia (ADR), subjects n (%): 0
  Oropharyngeal pain (ADR), subjects n (%): 0
  Papule (ADR), subjects n (%): 0
  Pollakiuria (ADR), subjects n (%): 0
  Presyncope (ADR), subjects n (%): 0
  Proctalgia (ADR), number of events: 2
  Proctalgia (ADR), subjects n (%): 1 (16.7)
  Salivary hypersecretion (ADR), subjects n (%): 0
  Skin irritation (ADR), subjects n (%): 0
  Somnolence (ADR), number of events: 2
  Somnolence (ADR), subjects n (%): 1 (16.7)
  Subjects with ADRs, n (%): 5 (83.3)
  Transaminases increased (ADR), subjects n (%): 0
  Tremor (ADR), number of events: 1
  Tremor (ADR), subjects n (%): 1 (16.7)
  Vomiting (ADR), number of events: 2
  Vomiting (ADR), subjects n (%): 2 (33.3)
MAD study, bersiporocin group
  ADRs, number of events: 150
  subjects with ADRs, number: 21
  subjects with ADRs, percentage: 88%
